Test results taken from patent publication EP4729514A1, “BICYCLIC DERIVATIVE PARP INHIBITOR AND USE THEREOF” (Haisco Pharmaceutical Group Co., Ltd., priority 2023, dated 2024).
Where two headings read alike, the source gives them in different places.

Legend:
DLD-1 = DLD-1 cell activity assay (CellTiter-Glo, 7 days); format: cell-based; conditions: Homo sapiens, 168 h, 7 days incubation; for inhibition at 10 µM: read-out: Max inh.% 10 µM; for IC50: table does not say whether DLD-1 or DLD-1 BRCA2 KO
Procedure: DLD-1 (150 cells/well/100 µL) (ATCC, CCL-221) and DLD-1 BRCA2 KO (1500 cells/well/100 µL) (from ICE BIOSCIENCE INC.) were inoculated into a 96-well plate (Greiner, 655090) at appropriate cell densities and incubated overnight in a cell incubator at 37°C. The test compound was diluted in the corresponding cell culture medium, and the mixture was added to the well plate and incubated for 7 days. On the fourth day, the medium was replaced with a fresh medium containing the same concentrations of the compounds. The CellTiter-Glo reagent (CTG, Vazyme, DD1101-03) and the culture plate were taken out and returned to room temperature, and then 60 µL of CTG reagent was added to the cells. The plate was then shaken for 2 minutes to ensure complete cell lysis and placed at room temperature for 30 minutes. Luminescence signal values were read using a microplate reader (PHERAstar FSX). The wells containing only culture medium were used as negative controls, and the DMSO-containing wells were used as positive controls. The inhibitory activity percentage of the compounds was normalised using the readings from the negative and positive controls. Calculation formula of inhibition rate: [formula] Table 2 DLD-1 cell activity

PARP-1 = biological target: T1, PARP-1 (Homo sapiens, UniProt P09874); assay: PARP1 enzyme activity assay (FP method, fluorescent probe); format: biochemical
T1 construct: purchased BPS 80501
Procedure: The inhibition of compounds on PARP1/2 enzyme activity was tested using the FP method. The substrate tracer fluorescent probe (from ICE BIOSCIENCE INC.) in the reaction was prepared in a reaction buffer (50 mM Tris (pH 8.0), 10 mM MgCl2, 150 mM NaCl, 0.001% Triox-100). PARP1/2 (BPS, Cat #80501/80502) was added to the reaction buffer, and gently mixed. The final concentrations of PARP1/2 and the fluorescent probe in the reaction mixture were 5/10 nM and 2.5 nM, respectively. Positive reference Olaparib was serially diluted 3-fold, from an initial concentration of 1 µM, to generate 10 concentration points. 0.1 µL of the compound in 100% DMSO was delivered to a 384-well plate (Corning, 4514) by the acoustic liquid conveyor (Echo 655), and the plate was centrifuged at 1000 rpm for 1 minute; 5 µL of PARP enzyme solution was transferred into the 384-well reaction plate, and the plate was centrifuged at 1000 rpm for 1 minute, and incubated at 25°C for 10 min; 5 µL of substrate solution was transferred into the 384-well reaction plate, and the plate was centrifuged at 1000 rpm for 1 minute, and incubated at 25°C for 60 minutes; finally, the mP signal value of FP (ex/em: 485 nm/520 nm) was read using the fluorescence polarisation module of the BMG PHERAstar FSX. Subsequently, the IC50 value was determined by fitting the data to a four-parameter nonlinear regression curve using GraphPad Prism 8 software. The inhibition rate was calculated according to formula 1, where RLUsample represents the readout of the compound well, RLUmax represents the readout of the solvent control well, and RLUmin represents the readout of the control well without the PARP1/2 enzyme. The IC50 value was determined by fitting the data to a four-parameter curve (log(inhibitor) vs. response -- Variable slope) using GraphPad Prism software. Inhibition% = (1−(RLUsample−RLUmin)/(RLUmax−RLUmin)) × 100% [formula] Table 1 PARP-1 enzyme activity

[1] = Pharmacokinetic test in rats; format: in vivo, SD rats; conditions: for Kp at 24 h: brain, 24 h after administration, cell spans the i.v. and i.g. lines, read-out: Brain/Plasma Ratio (24 h); for Kp at 24 h / bioavailability: rat; for pharmacokinetic characteristics in rats: conclusion in words; for AUC(0-t) at 24 h / clearance / Vd: rat plasma; for Vd: read-out: Vdss; for bioavailability: plasma
Procedure: 4.1. Experimental animals: Male SD rats (about 220 g, 6-8 weeks old, 6 rats/compound) purchased from CHENGDU DOSSY EXPERIMENTAL ANIMALS CO., LTD.
4.2 Experimental design: on the day of the experiment, 12 SD rats were randomly grouped according to their body weights. The animals were fasted with water available for 12-14 h one day before the administration, and were fed 4 h after the administration. Table 4. Administration information
Before and after administration, 0.15 ml of blood was taken from the orbit under isoflurane anaesthesia and placed in an EDTAK2 centrifuge tube. The tube was centrifuged at 5000 rpm at 4°C for 10 min, and plasma was collected. The blood collection time points for the intravenous administration group and intragastric administration group were: 0, 5 min, 15 min, 30 min, 1 h, 2 h, 4 h, 6 h, 8 h and 24 h. The brain tissues were collected 24 hours after the administration, rinsed with cold physiological saline to remove the residual blood on the surface, drained out and then homogenised. Before analysis and detection, all samples were stored at -80°C. The samples were quantitatively analysed by LC-MS/MS. Table 5. Pharmacokinetic parameters of test compounds in plasma of rats

A549 PARP1 KO = assay: PARP selectivity experiment (pADPr immunofluorescence after H2O2 stimulation), A549 PARP1 KO cells; format: cell-based; conditions: Homo sapiens, 0.75 h, H2O2 20 mM for 45 minutes
Procedure: (§1) A549WT, A549 PARP1 KO and A549 PARP2 KO cell lines were inoculated into a 384-well plate at 2500/40 µL/well, and incubated overnight at 37°C with 5% CO2. On the next day, 40 nL of serially diluted compounds were added, and the cells were incubated at 37°C with 5% CO2 for 1 hour. The cells were stimulated by adding 5 µL of H2O2. A549 WT and A549 PARP2 KO were stimulated with a final concentration of 200 µM for 5 minutes, and A549 PARP1 KO was stimulated with a final concentration of 20 mM for 45 minutes. After the stimulation, the supernatant was discarded, and the cells were fixed with 40 µL of pre-cooled methanol in a refrigerator at 4°C for 20 minutes. The cells were washed twice with PBS, and blocked with 20 µL of blocking buffer for 1 hour. A primary antibody mixture (prepared by diluting the pADPr antibody (10H: sc-56198) 1 : 500 in blocking buffer) was added, and the plate was incubated overnight at 4°C. The cells were washed three times with PBST. A secondary antibody mixture (prepared by diluting the goat anti-mouse IgG (H+L) highly cross-adsorbed secondary antibody (Alexa Fluor™ 488) 1 : 500 in blocking buffer) was added, and the plate was incubated at room temperature for 1 hour. The cells were washed three times with PBST, and 20 µL of DAPI solution (1 : 5000 dilution) was added. The plate was incubated at room temperature for 10 minutes before scanning. […]

A549 PARP2 KO = assay: PARP selectivity experiment (pADPr immunofluorescence after H2O2 stimulation), A549 PARP2 KO cells; format: cell-based
Procedure: as §1

[2] = PARP-1 enzyme activity, FP method, read-out: IC50

T1 sequence (P09874 whole entry): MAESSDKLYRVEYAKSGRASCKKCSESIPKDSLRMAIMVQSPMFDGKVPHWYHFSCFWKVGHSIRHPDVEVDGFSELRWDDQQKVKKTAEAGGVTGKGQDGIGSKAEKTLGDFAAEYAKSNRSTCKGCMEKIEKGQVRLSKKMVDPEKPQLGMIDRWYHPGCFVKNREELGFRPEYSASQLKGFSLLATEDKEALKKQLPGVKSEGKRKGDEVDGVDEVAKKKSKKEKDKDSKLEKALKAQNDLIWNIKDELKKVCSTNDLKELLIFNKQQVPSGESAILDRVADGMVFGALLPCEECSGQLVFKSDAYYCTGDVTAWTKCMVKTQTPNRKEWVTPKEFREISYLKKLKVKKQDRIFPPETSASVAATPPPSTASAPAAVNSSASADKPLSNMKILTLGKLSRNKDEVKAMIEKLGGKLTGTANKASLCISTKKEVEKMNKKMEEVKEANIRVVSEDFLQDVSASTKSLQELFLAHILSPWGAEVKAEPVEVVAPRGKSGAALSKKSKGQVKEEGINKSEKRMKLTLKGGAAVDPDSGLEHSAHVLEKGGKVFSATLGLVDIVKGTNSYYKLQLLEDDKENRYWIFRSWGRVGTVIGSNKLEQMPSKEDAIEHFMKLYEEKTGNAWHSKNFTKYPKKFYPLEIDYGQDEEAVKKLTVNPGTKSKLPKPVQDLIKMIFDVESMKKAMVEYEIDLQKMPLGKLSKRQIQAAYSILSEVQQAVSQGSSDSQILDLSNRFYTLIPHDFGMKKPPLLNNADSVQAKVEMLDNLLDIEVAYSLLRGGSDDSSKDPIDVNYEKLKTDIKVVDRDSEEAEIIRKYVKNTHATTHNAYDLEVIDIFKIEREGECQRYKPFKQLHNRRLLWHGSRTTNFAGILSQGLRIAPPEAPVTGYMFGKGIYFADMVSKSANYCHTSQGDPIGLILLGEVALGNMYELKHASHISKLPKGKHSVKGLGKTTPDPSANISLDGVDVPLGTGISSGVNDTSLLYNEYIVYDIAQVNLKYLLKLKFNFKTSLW

Row | SMILES | inhibition at 10 µM (DLD-1) [%] | IC50 (DLD-1) [nM] | IC50 (PARP-1) [nM] | IC50 (PARP-1; [2]) [nM] | also measured
1 | C=C1CC(NC(=O)c2ccc(N3CCN(Cc4ccc5nc(C)c(=O)[nH]c5c4F)CC3)c(F)n2)C1 [Compound 9] | 81.8 | 7.99 | 3.25 | – | –
2 | CCc1nc2ccc(CN3C[C@H](Oc4ccc(C(=O)NC5CC(=C(F)F)C5)nc4F)[C@H]3C)c(F)c2[nH]c1=O (stereo partly drawn) [Compound 11] | – | – | – | 5.63 | –
3 | C=C1CC(NC(=O)c2ccc(N3CCN(Cc4ccc5nc(CC)c(=O)[nH]c5c4F)CC3)c(F)n2)C1 [Compound 10] | 87.6 | 6.96 | 4.55 | – | –
4 | CCc1nc2ccc(CN3CCN(c4ccc(C(=O)NC5CC(=C(F)F)C5)nc4F)CC3)c(F)c2[nH]c1=O (stereo not drawn) [Compound 13] | – | – | – | 6.39 | –
5 | CCc1nc2ccc(CN3CCN(c4ccc(C(=O)Nc5cnn(C)c5F)nc4F)CC3)c(F)c2[nH]c1=O [Compound 4] | 91.7 | 3.1 | 3.38 | – | –
6 | CCc1nc2ccc(CN3CCN(c4ccc(NC(=O)c5cn(C)nc5F)nc4F)CC3)c(F)c2[nH]c1=O [Compound 6] | – | – | – | 10.5 | –
7 | C=C1CC(NC(=O)c2ccc(O[C@H]3CN(Cc4ccc5nc(C)c(=O)[nH]c5c4F)[C@@H]3C)c(F)n2)C1 [Compound 18] | – | – | – | 7.94 | –
8 | Cn1ncc(C(=O)Nc2ccc(N3CCN(Cc4ccc5nc(C(F)F)c(=O)[nH]c5c4F)CC3)c(F)n2)c1F [Compound 5] | – | – | – | 17.1 | –
9 | CCc1nc2ccc(CN3CCN(c4ccc(C(=O)Nc5cn(C)nc5F)nc4F)CC3)c(F)c2[nH]c1=O [Compound 1] | 94 | 3.64 | 2.74 | – | –
10 | C=C1CC(NC(=O)c2ccc(O[C@H]3CN(Cc4ccc5nc(CC)c(=O)[nH]c5c4F)[C@@H]3C)c(F)n2)C1 [Compound 8] | 86.7 | 16.8 | 5.42 | – | Kp at 24 h ([1]; iv): 0.242; pharmacokinetic characteristics in rats [1]: good pharmacokinetic characteristics; AUC(0-t) at 24 h ([1]; iv, i.v. (2.5 mg/kg)): 5.72 ± 0.298 µg·h/mL; clearance ([1]; iv, i.v. (2.5 mg/kg)): 0.262 ± 0.0444 L/h/kg; Vd ([1]; iv, i.v. (2.5 mg/kg)): 0.855 ± 0.16 L/kg; bioavailability ([1]; po, i.g. (10 mg/kg)): 81.9 ± 22%; AUC(0-t) at 24 h ([1]; po, i.g. (10 mg/kg)): 31.8 ± 8.48 µg·h/mL
11 | Cc1nc2ccc(CN3CCN(c4ccc(C(=O)NC5CC(=C(F)F)C5)nc4F)CC3)c(F)c2[nH]c1=O (stereo not drawn) [Compound 12] | – | – | – | 3.14 | –
12 | C=C1CC(NC(=O)c2ccc(N3CCN(Cc4ccc5nc(C(F)F)c(=O)[nH]c5c4F)CC3)c(F)n2)C1 [Compound 7] | – | – | – | 12.5 | –
13 | Cn1ncc(NC(=O)c2ccc(N3CCN(Cc4ccc5nc(C(F)F)c(=O)[nH]c5c4F)CC3)c(F)n2)c1F [Compound 3] | 91.6 | 4.67 | 10.5 | – | –
14 | Cn1cc(NC(=O)c2ccc(N3CCN(Cc4ccc5nc(C(F)F)c(=O)[nH]c5c4F)CC3)c(F)n2)c(F)n1 [Compound 2] | 93.1 | 4.67 | 10.8 | – | IC50 (A549 PARP1 KO): > 5000 nM; IC50 (A549 PARP2 KO; Homo sapiens, 5 min, A549 PARP2 KO cells, H2O2 200 µM for 5 minutes): 0.63 nM; selectivity for PARP1 (A549 PARP2 KO; conclusion in words, from A549 PARP2 KO versus A549 PARP1 KO): good selectivity for PARP1; Kp at 24 h ([1]; iv): 1.03; pharmacokinetic characteristics in rats [1]: good pharmacokinetic characteristics; AUC(0-t) at 24 h ([1]; iv, i.v. (2.5 mg/kg)): 18.7 ± 0.972 µg·h/mL; clearance ([1]; iv, i.v. (2.5 mg/kg)): 0.133 ± 0.0066 L/h/kg; Vd ([1]; iv, i.v. (2.5 mg/kg)): 0.348 ± 0.027 L/kg; bioavailability ([1]; po, i.g. (10 mg/kg)): 66.8 ± 15%; AUC(0-t) at 24 h ([1]; po, i.g. (10 mg/kg)): 50 ± 11.5 µg·h/mL
